Data reported in ChEMBL document CHEMBL3885861, “Open TG-GATES”.

Organism: Rattus norvegicus
Assay: Open TG-GATES - Regimen: Single
Assay type: toxicity, organism-based, Sprague-Dawley
Parameters: regimen Single, gender Male, age 6 weeks
Conditions: in vivo, po, 2 mg/kg, route gavage, dose level Low; for APTT / Bas / Eos / Fbg / Hb / Lym / MCH / MCHC / MCV / Mono / Neu / PT / Plat / RBC / Ret / WBC: tissue Blood; for KIDNEY_L / KIDNEY_R / KIDNEY_TOTAL: tissue Kidney; for LIVER: tissue Liver; for ALP / ALT / AST / BUN / CRE / Ca / Cl / DBIL / GLC / IP / K / LDH / Na / PL / RALB / TBIL / TC / TG / TP / gamma-GTP: tissue Plasma

Compound: OCCN1CCN(CCCN2c3ccccc3Sc3ccc(C(F)(F)F)cc32)CC1 [FLUPHENAZINE]
- TERMINAL_BW (3 h): 193.4 g
- APTT (3 h): 16.5 s
- Bas (3 h): 0%
- Eos (3 h): 0.8%
- Fbg (3 h): 231.2 mg/dL
- Hb (3 h): 13.2 g/dL
- Lym (3 h): 76.6%
- MCH (3 h): 21.9 pg
- MCHC (3 h): 33.2%
- MCV (3 h): 65.9 fL
- Mono (3 h): 8.2%
- Neu (3 h): 14.6%
- PT (3 h): 12.5 s
- Plat (3 h): 111 x10_4/uL
- RBC (3 h): 605.2 x10_4/ul
- Ret (3 h): 7.9%
- WBC (3 h): 105.8 x10_2/uL
- KIDNEY_L (3 h): 0.9 g
- KIDNEY_R (3 h): 0.9 g
- KIDNEY_TOTAL (3 h): 1.8 g
- LIVER (3 h): 8.9 g
- ALP (3 h): 678.4 IU/L
- ALT (3 h): 29.6 IU/L
- AST (3 h): 56.4 IU/L
- BUN (3 h): 10.8 mg/dL
- CRE (3 h): 0.5 mg/dL
- Ca (3 h): 10.5 mg/dL
- Cl (3 h): 105.2 meq/L
- DBIL (3 h): 0.012 mg/dL
- GLC (3 h): 193.4 mg/dL
- IP (3 h): 10.4 mg/dL
- K (3 h): 4.8 meq/L
- LDH (3 h): 84 IU/L
- Na (3 h): 137.8 meq/L
- PL (3 h): 148 mg/dL
- RALB (3 h): 3.9 g/dL
- TBIL (3 h): 0.3 mg/dL
- TC (3 h): 88.8 mg/dL
- TG (3 h): 40 mg/dL
- TP (3 h): 5.6 g/dL
- gamma-GTP (3 h): 2.4 IU/L
- TERMINAL_BW (6 h): 197 g
- APTT (6 h): 16.5 s
- Bas (6 h): 0%
- Eos (6 h): 0.8%
- Fbg (6 h): 220.8 mg/dL
- Hb (6 h): 13 g/dL
- Lym (6 h): 75.4%
- MCH (6 h): 21.5 pg
- MCHC (6 h): 33%
- MCV (6 h): 65.3 fL
- Mono (6 h): 8.6%
- Neu (6 h): 15.6%
- PT (6 h): 12.4 s
- Plat (6 h): 113.3 x10_4/uL
- RBC (6 h): 606.4 x10_4/ul
- Ret (6 h): 8.7%
- WBC (6 h): 86.8 x10_2/uL
- KIDNEY_L (6 h): 0.9 g
- KIDNEY_R (6 h): 0.9 g
- KIDNEY_TOTAL (6 h): 1.8 g
- LIVER (6 h): 8.5 g
- ALP (6 h): 708.4 IU/L
- ALT (6 h): 32.4 IU/L
- AST (6 h): 57.2 IU/L
- BUN (6 h): 10.2 mg/dL
- CRE (6 h): 0.5 mg/dL
- Ca (6 h): 10.2 mg/dL
- Cl (6 h): 105.8 meq/L
- DBIL (6 h): 0.002 mg/dL
- GLC (6 h): 184.2 mg/dL
- IP (6 h): 10.2 mg/dL
- K (6 h): 4.8 meq/L
- LDH (6 h): 84.8 IU/L
- Na (6 h): 136.8 meq/L
- PL (6 h): 150.6 mg/dL
- RALB (6 h): 3.7 g/dL
- TBIL (6 h): 0.4 mg/dL
- TC (6 h): 92.4 mg/dL
- TG (6 h): 33.6 mg/dL
- TP (6 h): 5.3 g/dL
- gamma-GTP (6 h): 2.2 IU/L
- TERMINAL_BW (9 h): 192.1 g
- APTT (9 h): 16.7 s
- Bas (9 h): 0%
- Eos (9 h): 0.6%
- Fbg (9 h): 223 mg/dL
- Hb (9 h): 13.1 g/dL
- Lym (9 h): 74.2%
- MCH (9 h): 21.6 pg
- MCHC (9 h): 33%
- MCV (9 h): 65.5 fL
- Mono (9 h): 6.6%
- Neu (9 h): 19%
- PT (9 h): 12.3 s
- Plat (9 h): 113.3 x10_4/uL
- RBC (9 h): 609.2 x10_4/ul
- Ret (9 h): 7.9%
- WBC (9 h): 62.2 x10_2/uL
- KIDNEY_L (9 h): 0.9 g
- KIDNEY_R (9 h): 0.9 g
- KIDNEY_TOTAL (9 h): 1.8 g
- LIVER (9 h): 8.1 g
- ALP (9 h): 829.8 IU/L
- ALT (9 h): 27.4 IU/L
- AST (9 h): 54.4 IU/L
- BUN (9 h): 9 mg/dL
- CRE (9 h): 0.5 mg/dL
- Ca (9 h): 9.9 mg/dL
- Cl (9 h): 104.4 meq/L
- DBIL (9 h): 0.022 mg/dL
- GLC (9 h): 176.8 mg/dL
- IP (9 h): 10 mg/dL
- K (9 h): 4.5 meq/L
- LDH (9 h): 81.6 IU/L
- Na (9 h): 137.2 meq/L
- PL (9 h): 135.4 mg/dL
- RALB (9 h): 3.6 g/dL
- TBIL (9 h): 0.3 mg/dL
- TC (9 h): 79.4 mg/dL
- TG (9 h): 33.2 mg/dL
- TP (9 h): 5.3 g/dL
- gamma-GTP (9 h): 2.2 IU/L
- TERMINAL_BW (24 h): 213 g
- APTT (24 h): 17 s
- Bas (24 h): 0%
- Eos (24 h): 0.8%
- Fbg (24 h): 209.8 mg/dL
- Hb (24 h): 13.1 g/dL
- Lym (24 h): 86.2%
- MCH (24 h): 21.7 pg
- MCHC (24 h): 33.2%
- MCV (24 h): 65.4 fL
- Mono (24 h): 4%
- Neu (24 h): 9.2%
- PT (24 h): 12.2 s
- Plat (24 h): 117 x10_4/uL
- RBC (24 h): 605.6 x10_4/ul
- Ret (24 h): 7.7%
- WBC (24 h): 112.3 x10_2/uL
- KIDNEY_L (24 h): 0.9 g
- KIDNEY_R (24 h): 0.9 g
- KIDNEY_TOTAL (24 h): 1.9 g
- LIVER (24 h): 10.8 g
- ALP (24 h): 934.6 IU/L
- ALT (24 h): 32.6 IU/L
- AST (24 h): 56.6 IU/L
- BUN (24 h): 22.2 mg/dL
- CRE (24 h): 0.5 mg/dL
- Ca (24 h): 11 mg/dL
- Cl (24 h): 104.2 meq/L
- DBIL (24 h): 0.014 mg/dL
- GLC (24 h): 178.8 mg/dL
- IP (24 h): 7.5 mg/dL
- K (24 h): 5.1 meq/L
- LDH (24 h): 92.8 IU/L
- Na (24 h): 136.6 meq/L
- PL (24 h): 166.6 mg/dL
- RALB (24 h): 4.1 g/dL
- TBIL (24 h): 0.3 mg/dL
- TC (24 h): 82.6 mg/dL
- TG (24 h): 139.2 mg/dL
- TP (24 h): 6 g/dL
- gamma-GTP (24 h): 1.6 IU/L
